Source: US20230203099A1, “CYCLOPHILIN INHIBITORS AND USES THEREOF” (priority 2020, published 2023)
Like-named read-outs stand apart in the source and are kept apart here.

Experiments:
[1] = target: Human CypD (Homo sapiens, UniProt P30405); experiment: Cyclophilin peptidyl-prolyl isomerase functional assay (PPIase), cyclophilin D; format: biochemical
Description: (§1) Cyclophilin A and D peptidyl-prolyl isomerase functional assays using human recombinant enzymes (PPlase assay), as well as in a calcineurin inhibition assay with and without cyclophilin A are conducted.
(§2) The compounds are supplied as a dry powder or oils and made up as a 10 mM stock solution in 100% DMSO. Subsequent dilutions were made in 100% DMSO for use in all assays.
(§3) Cyclophilin Peptidyl-Prolyl Isomerase Functional Assay
(§4) Measurements are performed using an Agilent 8453 spectrophotometer. Assay buffer was cooled to 10° C. (with stirring) in a precision glass cuvette and inhibitor is added from a DMSO stock solution to afford a final concentration of <1% DMSO. A blank spectrum is obtained and then enzyme and substrate are added and the change in absorbance measured over 5 min. A first order rate is fitted to the absorbance data to obtain a rate constant (first 10 to 15 s were eliminated due to mixing). The catalytic rate is calculated from the enzymatic rate minus the background rate. The enzymatic rate constant, determined in duplicate at each inhibitor concentration, is plotted against inhibitor concentration and a non-linear fit by SigmaPlot generated a Ki.

[2] = target: recombinant Calcineurin (CaN) (Homo sapiens, UniProt P63098+Q08209); experiment: Calcineurin phosphatase inhibition assay without cyclophilin A; format: biochemical
Description: as §1, §2
(§5) Calcineurin Phosphatase Inhibition Assay With and Without Cyclophilin A
(§6) This colorimetric 96 well assay is designed for inhibitor screening of recombinant Calcineurin (CaN). […] In a 96-well plate, two dilution series are prepared, one with the cyclophilin A enzyme (7-point) and another without (4-point). An assay buffer/calcineurin/calmodulin master mix is added followed by the phosphopeptide substrate (RII). After incubation at 30° C. the reaction is stopped by the addition of malachite green/molybdate reagent. The coloured complex formed with liberated phosphate is quantified by reading the absorbance at 620 nm. The blank corrected data was plotted against inhibitor concentration to determine an IC50 value.

[3] = tested on: permeabilized HepG2; experiment: Calcium retention capacity (CRC) assay in permeabilized HepG2; format: cell-based; conditions: Homo sapiens
Description: The compounds are also tested in a calcium retention capacity (CRC) assay in permeabilized HepG2.
as §2
Calcium Retention Capacity (CRC) Assay in Permeabilized HepG2
HepG2 cells are permeabilised with 100 μM digitonin for 10 min in ice cold buffer containing 1 mM EGTA. Following two wash steps to remove the digitonin, the cells are plated into 96 well black and clear plates at 1e^6 cell per well in 180 μL assay buffer containing 0.5 μM Calcium Green 5N. Compounds dilutions are made in DMSO to 1000-fold the final concentration, diluted 1:100 in assay buffer and added to the assay as 20 μL per well. The assay buffer contained 5 mM glutamate and 2.5 mM malate. The cell plate is immediately run on the FLIPR Tetra™ which added 5 μL of 200 μM (5 μM) calcium chloride every 5 minutes whilst reading the plate every 3 seconds. The area under the curve at each concentration of compound is calculated. EC50 values are calculated.
The assay as described above measures the loss of inhibition based on the release of calcium, which is determined by increased intensity of fluorescence reporting of the calcium-binding dye used in the assay.

[4] = target: recombinant Calcineurin (CaN) + CypA (Homo sapiens, UniProt P62937+P63098+Q08209); experiment: Calcineurin phosphatase inhibition assay with cyclophilin A; format: biochemical; conditions: RII phosphopeptide substrate
Description: as §1, §2, §5, §6

[5] = target: Human CypA (Homo sapiens, UniProt P62937); experiment: Cyclophilin peptidyl-prolyl isomerase functional assay (PPIase), cyclophilin A; format: biochemical; conditions: human recombinant enzyme, 10° C.; read-out: Inhibition (Ki, nM) Human CypA
Description: as §1, §2, §3, §4

[6] = human recombinant enzyme, 10° C., read-out: Inhibition (Ki, nM) Human CypD
[7] = without cyclophilin A, RII phosphopeptide substrate, read-out: Calcineurin Inhibition (IC50, nM) −CypA
[8] = permeabilized HepG2, Calcium Green 5N, read-out: Calcium Retention Capacity EC50

Sequence of Human CypD (P30405 30-207): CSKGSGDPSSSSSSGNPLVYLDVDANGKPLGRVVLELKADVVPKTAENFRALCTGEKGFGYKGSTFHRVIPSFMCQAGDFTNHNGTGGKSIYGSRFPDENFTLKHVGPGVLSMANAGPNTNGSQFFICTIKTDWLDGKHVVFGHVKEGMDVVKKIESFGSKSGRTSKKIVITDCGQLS
Sequence of recombinant Calcineurin (CaN) (P63098 whole entry, other chains not shown): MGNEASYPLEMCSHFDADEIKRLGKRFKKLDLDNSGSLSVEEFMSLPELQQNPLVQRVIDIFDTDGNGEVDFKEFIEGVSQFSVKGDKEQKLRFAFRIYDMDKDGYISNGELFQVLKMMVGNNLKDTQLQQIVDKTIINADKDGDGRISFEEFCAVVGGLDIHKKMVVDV
Sequence of recombinant Calcineurin (CaN) + CypA (P62937 whole entry, other chains not shown): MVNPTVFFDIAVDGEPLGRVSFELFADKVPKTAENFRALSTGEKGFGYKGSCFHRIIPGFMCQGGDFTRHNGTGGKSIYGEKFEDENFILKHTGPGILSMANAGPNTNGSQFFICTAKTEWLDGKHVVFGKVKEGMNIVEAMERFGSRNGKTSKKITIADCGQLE
Sequence of recombinant Calcineurin (CaN) + CypA (P63098 whole entry, other chains not shown): as the sequence (P63098 whole entry, other chains not shown) above
Sequence of Human CypA (P62937 whole entry): as the sequence (P62937 whole entry, other chains not shown) above

Row | Structure (SMILES) | Ki [1] [nM] | IC50 [2] [nM] | EC50 ([3]; HepG2, read-out: Calcium Retention Capacity EC50 (nM)) [nM] | Ki [1, 6] [nM] | IC50 [2, 7] [nM] | EC50 [3, 8] [nM] | IC50 [4] [nM] | Ki [5] [nM]
1 | CC[C@@H]1NC(=O)[C@H]([C@H](O)[C@H](C)C/C=C/c2ccc(C)cc2)N(C)C(=O)[C@H](C(C)C)N(C)C(=O)[C@H](CC(C)C)N(C)C(=O)[C@H](CC(C)C)N(C)C(=O)[C@@H](C)NC(=O)[C@H](C)NC(=O)[C@H](CC(C)C)N(C)C(=O)[C@H](C(C)C)NC(=O)[C@H](CC(C)C)N(C)C(=O)C(OCCN(C)C)N(C)C1=O (some centres unmarked) [Compound 2] | 11 | 3950 | 512 |  |  |  |  | 
2 | CC[C@@H]1NC(=O)[C@H]([C@H](O)[C@H](C)C/C=C/c2ccc(C(F)(F)F)cc2)N(C)C(=O)[C@H](C(C)C)N(C)C(=O)[C@H](CC(C)C)N(C)C(=O)[C@H](CC(C)C)N(C)C(=O)[C@@H](C)NC(=O)[C@H](C)NC(=O)[C@H](CC(C)C)N(C)C(=O)[C@H](C(C)C)NC(=O)[C@H](CC(C)C)N(C)C(=O)C(OCCN(C)C)N(C)C1=O (some centres unmarked) [Compound 3] |  |  |  | 9.4 | > 10000 | 1370 |  | 
3 | CC[C@@H]1NC(=O)[C@H]([C@H](O)[C@H](C)C/C=C/c2cccs2)N(C)C(=O)[C@H](C(C)C)N(C)C(=O)[C@H](CC(C)C)N(C)C(=O)[C@H](CC(C)C)N(C)C(=O)[C@@H](C)NC(=O)[C@H](C)NC(=O)[C@H](CC(C)C)N(C)C(=O)[C@H](C(C)C)NC(=O)[C@H](CC(C)C)N(C)C(=O)C(OCCN(C)C)N(C)C1=O (some centres unmarked) [Compound 4] |  |  |  | 11 | 1160 | 867 |  | 
4 | CC[C@@H]1NC(=O)[C@H]([C@H](O)[C@H](C)C/C=C/c2ccc(OC)cc2)N(C)C(=O)[C@H](C(C)C)N(C)C(=O)[C@H](CC(C)C)N(C)C(=O)[C@H](CC(C)C)N(C)C(=O)[C@@H](C)NC(=O)[C@H](C)NC(=O)[C@H](CC(C)C)N(C)C(=O)[C@H](C(C)C)NC(=O)[C@H](CC(C)C)N(C)C(=O)C(OCCN(C)C)N(C)C1=O (some centres unmarked) [Compound 5] |  |  |  | 8.4 | 2660 | 623 | 2430 | 5.5
5 | CC[C@@H]1NC(=O)[C@H]([C@H](O)[C@H](C)C/C=C/c2ccc3ccccc3c2)N(C)C(=O)[C@H](C(C)C)N(C)C(=O)[C@H](CC(C)C)N(C)C(=O)[C@H](CC(C)C)N(C)C(=O)[C@@H](C)NC(=O)[C@H](C)NC(=O)[C@H](CC(C)C)N(C)C(=O)[C@H](C(C)C)NC(=O)[C@H](CC(C)C)N(C)C(=O)C(OCCN(C)C)N(C)C1=O (some centres unmarked) [Compound 6] |  |  |  | 6.5 | > 10000 | 964 |  | 
